Assay results: patent US20230390296A1, “NOVEL TREATMENT AND PREVENTION OF SARCOPENIA-RELATED DISEASES” (KEIO UNIVERSITY, priority 2020, published 2023)
Several values for one entry are separate records, joined by “and”; a condition that tells them apart may be missing. Equal values may be shown once.

Legend:
sarcopenia mouse models [1] = assay: NTX (cross linked N-telopeptide of type I collagen) concentration; type: in vivo; conditions: administered versus non-administered sarcopenia mouse models
Protocol: Mouse models were divided into two groups. The NTX (cross linked N-telopeptide of type I collagen) concentration was measured for sarcopenia mouse models administered with OK-1 and sarcopenia mouse models without administration of OK-1.
Mouse models were divided into two groups. The NTX (cross linked N-telopeptide of type I collagen) concentration was measured for sarcopenia mouse models administered with C-82 and sarcopenia mouse models without administration of C-82.

[2] = tested on: muscle of mice without exercise; assay: Gene analysis (RNA-seq, GO, upstream transcription factor, GSEA) of muscle of administered mice without exercise; type: in vivo, mouse
Protocol: Gene analysis (RNA-seq) was performed in old mice administered with OK-1 with improved muscle strength and muscle mass. The method and reagent used were the following.
The quality of all reads was checked by using FastQC v0.11.8, and low quality reads were removed using Trimomatic (ver 0.38).
LEADING: 20 (remove bases with a quality score of less than 20 from the leading reads), TRAILING: 20, SLIDINGWINDOW: 4:15 (window size 4, average quality 15), MINLEN: 36 (remove reads that are less than […])
Each read obtained after filtering was mapped to reference genome GRCm38 by using STAR (ver 2.7.0.f). Mapping was performed using the default values of STAR.
1) Index preparation • Run Mode; genomeGenerate • Reference; GRCm38 • Annotation file; genecode version M24 • sjdbOverhang; 150 alignment was performed using the index prepared above. In addition, this was performed with default values without options.
To count the number of genes, featuecount (ver 1.6.4) was used to count the number for each gene name defined by a symbol name, where the number was counted in gene symbol units defined in genecode version M24.
The counted numbers were filtered for genes with a count data of 0 in all samples, subjected to TMM normalization using edgeR (ver 3.22.3), and corrected among samples. Initially, for understanding of the overall picture of the data, primary component analysis and clustering analysis were performed using count data after removal of low expression genes.
Differential expression of a pattern designated based on the obtained expression values was compared.
Differentially expressed genes were tested using edgeR. As the definition of differentially expressed gene, uncorrected p. value<0.05 was used as a cut-off value, and Fold Change of “pattern not used” and “2 or more or 0.5 or less” were used as the cut-off for calculation.
Gene enrichment analysis was performed on the resulting differentially expressed gene using gprofiler2 (version 0.1.6).
Expression values after normalization of resulting differentially expressed genes were extracted. Visual heatmap was drawn to study the change. […] This analysis was performed using RcisTarget (ver 1.8.0). RcisTarget performed analysis using a mouse database for 10 kbp upstream of TSS stored in RcisTarget. Details of analysis are the following (cited from https://scenic.aertslab.org/tutorials/RcisTarget.html).
The first step to estimate the over-representation of each motif on the gene-set is to calculate the Area Under the Curve (AUC) for each pair of motif-geneSet. This is calculated based on the recovery curve of the gene-set on the motif ranking (genes ranked decreasingly by the score of motif in its proximity, as provided in the motifRanking database).
The selection of significant motifs is done based on the Normalized Enrichment Score (NES). The NES is calculated—for each motif—based on the AUC distribution of all the motifs for the gene-set [(x-mean)/sd]. Those motifs that pass the given threshold (3.0 by default) are considered significant. […] In this way, the third step of the workflow is to identify which genes (of the gene-set) are highly ranked for each of the significant motifs. These genes were identified by a faster implementation based on an approximate distribution using the average at each rank.
The category of genes with a change in expression identified in Example 2 was analyzed with a software (GSEA), which is different from that in Example 2 (GO) (FIG. 3). Analysis with GSEA was performed as follows. GSEA performed categorization by the regulating gene. This is different from GO, which performs categorization by function.
Data was created on the relationship of activattion+unknown and repression+unknown for regulatory genes and transcription factors installed in TRRUST ver2. Gene enrichment analysis was performed using GSEA (https://www.gsea-msigdb.org/gsea/index.jsp) based on respective gene sets. local gsea-3.0 that starts up within java was used for GSEA.

mouse bones = assay: Bone density (DEXA or ultrasound); type: in vivo; conditions: administered versus non-administered mice
Protocol: This Example tested bone density for mice administered with OK-1 and mice without administration of OK-1 in order to investigate the effect of OK-1 on mouse bones. Bone density was measured using DEXA or ultrasound.
This Example tested bone density for mice administered with C-82 and mice without administration of C-82 in order to investigate the effect of C-82 on mouse bones. Bone density was measured using DEXA or ultrasound.

sarcopenia mouse models [3] = assay: Brain function behavioral tests (Barnes maze, fear conditioning, object recognition, open field, social behavior); type: in vivo; conditions: administered versus non-administered sarcopenia mouse models
Protocol: (§1) Mouse models were divided into two groups. Short term memory, long term memory, depression, activity level, social interaction, cognitive ability, etc., were tested using a Barnes maze, fear conditioning test, object recognition test, open field test, social behavior test (Crawley version), etc. on sarcopenia mouse models administered with OK-1 and sarcopenia mouse models without administration of OK-1.
These tests are described in http://www.fujita-hu.ac.jp/ to smedsci/behaviorcore/equipment/index.html, Barnes maze, a useful task to assess spatial reference memory in the mice (doi: 10.1038/nprot.2007.390), etc., which can be suitably referenced and practiced.
as §1, with “C-82” for “OK-1”, “C-82.” for “OK-1.”
These tests are described in http://www.fujita-hu.ac.jp/to smedsci/behaviorcore/equipment/index.html, Barnes maze, a useful task to assess spatial reference memory in the mice (doi: 10.1038/nprot.2007.390), etc., which can be suitably referenced and practiced.

sarcopenia mouse models [4] = assay: Biochemical test on organ (creatine, IL-6, cholesterol etc. concentrations); type: in vivo; conditions: administered versus non-administered sarcopenia mouse models
Protocol: Mouse models were divided into two groups. The creatine concentration, IL-6 concentration, and cholesterol concentration were measured for sarcopenia mouse models administered with OK-1 and sarcopenia mouse models without administration of OK-1.
Mouse models were divided into two groups. The creatine concentration, IL-6 concentration, cholesterol concentration, UN (urea nitrogen is a biomarker that can predict the dysfunction of kidney or urinary system) concentration, and UA (uric acid is a biomarker for kidney or liver function) concentration were measured for sarcopenia mouse models administered with C-82 and sarcopenia mouse models without administration of C-82.

sarcopenia mouse models [5] = assay: Cardiac function test (echocardiogram and treadmill); type: in vivo; conditions: administered versus non-administered sarcopenia mouse models
Protocol: This Example used mouse models prepared in the Preparation Example.
Measurement can be taken using Kumamoto Mouse Clinic (KMC) of Kumamoto University.
Mouse models were divided into two groups. Cardiac function was tested for sarcopenia mouse models administered with OK-1 and sarcopenia mouse models without administration of OK-1. Cardiac function was tested and analyzed using an echocardiogram and treadmill.
Mouse models were divided into two groups. Cardiac function was tested for sarcopenia mouse models administered with C-82 and sarcopenia mouse models without administration of C-82. Cardiac function was tested and analyzed using an echocardiogram and treadmill.

Row | SMILES | osteoporosis (from NTX concentration) (sarcopenia mouse models [1]) | gene group associated with OK-1: genes associated with regulation of muscle without exercise [2] | upstream factors from upstream transcription factor analysis [2] | gene group associated with OK-1 by GSEA: involved in increase in muscle ([2]; GSEA, TRRUST ver2) | genes decreased (downregulated expression) significantly in muscle ([2]; OK-1 administration, p<0.05) | genes increased (upregulated expression) significantly in muscle ([2]; OK-1 administration, p<0.05) | bone density (mouse bones) | short term memory, long term memory, depression, activity level, social interaction, cognitive ability (sarcopenia mouse models [3]) | muscle (from creatine, IL-6 and cholesterol concentrations) (sarcopenia mouse models [4]) | cardiac function (sarcopenia mouse models [5]) | change in gene expression in muscles ([2]; C-82 administration, same method as Example 2) | kidney function and muscle (from creatine, IL-6, cholesterol, UN and UA concentrations) (sarcopenia mouse models [4])
1 | C[C@H]1[C@H]2N(C(=O)CN(C)N2C(=O)NCc2ccccc2)[C@@H](Cc2ccc(OP(=O)(O)O)cc2)C(=O)N1Cc1cccc2cccnc12 [OK-1] | osteoporosis is improved | Ppara, Pou2f2, Foxo1, Pparg, Pou2f1, Trp63, Sp1, Tcf3, Zeb1, Srebf1, Sp3, Ebf1, Mycn, and Pbx1 | Hnf4a and Gata4, Nrf1, and Hnf1a | IRF1, NFE2L2, PPARG, FOXO1, CEBPB, PPARA, CEBPA, STAT1, STAT5A, MYOD1, REL, NFKB1, SPI1, IRF8, SP1, and FOXM1 | 445 genes and 595 genes | 206 genes and 181 genes | bone density is improved | short term memory, long term memory, depression, activity level, social interaction, and cognitive ability are improved | muscle improves | cardiac function is improved |  | 
2 | C[C@H]1[C@H]2N(C(=O)CN(C)N2C(=O)NCc2ccccc2)[C@@H](Cc2ccc(O)cc2)C(=O)N1Cc1cccc2cccnc12 [C-82, (6S,9S)—N-benzyl-6-(4-hydroxybenzyl)-2,9-dimethyl-4,7-dioxo-8-(quinolin-8-ylmethyl)hexahydro-2H-pyrazino[2,1-c][1,2,4]triazine-1(6H)-carboxamide] | osteoporosis is improved |  |  |  |  |  | bone density is improved | short term memory, long term memory, depression, activity level, social interaction, and cognitive ability are improved |  | cardiac function is improved | achieves the same result as OK-1 | kidney function and muscle improve
